US10450311B2, “Pesticidally active heterocyclic derivatives with sulphur containing substituents” (Syngenta Participations AG, priority 2014, dated 2019)

How the values were obtained:
Type in all cases: in vivo
[1] = system: Thrips tabaci (Onion Thrips); experiment: Activity against Thrips tabaci, feeding/contact activity; settings: foliar, 144 h, application rate of 200 ppm, thrips population of mixed ages on sunflower leaf discs, 6 days after infestation
Procedure: Example B13: Activity Against Thrips tabaci (Onion Thrips) Feeding/Contact Activity
Sunflower leaf discs were placed on agar in 24-well microtiter plates and sprayed with aqueous test solutions prepared from 10′000 ppm DMSO stock solutions. After drying the leaf discs were infested with a thrips population of mixed ages. The samples were assessed for mortality 6 days after infestation.

[2] = system: Bemisia tabaci (Cotton White Fly); experiment: Activity against Bemisia tabaci, sprayed cotton leaf discs; settings: foliar, 144 h, application rate of 200 ppm, adult white flies on cotton leaf discs, 6 days after incubation
Procedure: Example B1: Activity Against Bemisia tabaci (Cotton White Fly)
Cotton leaf discs were placed on agar in 24-well microtiter plates and sprayed with aqueous test solutions prepared from 10′000 ppm DMSO stock solutions. After drying the leaf discs were infested with adult white flies. The samples were checked for mortality 6 days after incubation. […] A35, A36 and A47. A1. A2, A3, A8, A10, A14 and A12.

[3] = system: Aedes aegypti (Yellow Fever Mosquito); experiment: whole plant or invertebrate; settings: 48 h, test rate of 5 ppm, L2 larvae in 96-well plates, incubation period of 2 days, read-out: effect in at least one of the two categories (mortality or growth inhibition)
Procedure: Example B14: Activity Against Aedes aegypti (Yellow Fever Mosquito)
10 to 15 Aedes larvae (L2) together with a nutrition mixture were placed in 96-well microtiter plates. Test compounds were pipetted into the wells. After an incubation period of 2 days insects were assessed for mortality and growth inhibition.

[4] = system: Spodoptera littoralis (Egyptian Cotton Leaf Worm); experiment: Activity against Spodoptera littoralis, systemic activity; settings: 144 h, test rate of 12.5 ppm, in agar, lettuce root uptake, 6 days after infestation
Description: Example B11: Activity Against Spodoptera littoralis (Egyptian Cotton Leaf Worm), Systemic Activity
(§1) Test compounds were applied by pipette from 10′000 ppm DMSO stock solutions into 24-well plates and mixed with agar. Lettuce seeds were placed on the agar and the multi well plate was closed by another plate which contains also agar. After 7 days the roots have absorbed the compound and the lettuce has grown into the lid plate. The lettuce leafs were now cut off into the lid plate. Spodoptera eggs were pipetted through a plastic stencil on a humid gel blotting paper and the plate closed with it. The samples were assessed for mortality 6 days after infestation.

[5] = system: Diabrotica balteata (Corn Root Worm); experiment: Activity against Diabrotica balteata, sprayed maize sprouts; settings: 96 h, application rate of 200 ppm, larvae on maize sprouts, 4 days after infestation
Procedure: Example B2: Activity Against Diabrotica balteata (Corn Root Worm)
Maize sprouts, placed on an agar layer in 24-well microtiter plates were treated with aqueous test solutions prepared from 10′000 ppm DMSO stock solutions by spraying. After drying, the plates were infested with […] (6 to 10 per well). The samples were assessed for mortality 4 days after infestation.

[6] = system: Myzus persicae (Green Peach Aphid); experiment: Activity against Myzus persicae, sprayed sunflower leaf discs; settings: foliar, 144 h, application rate of 200 ppm, aphid population of mixed ages on sunflower leaf discs, 6 days after infestation
Procedure: Example B5: Activity Against Myzus persicae (Green Peach Aphid)
Sunflower leaf discs were placed on agar in a 24-well microtiter plate and sprayed with aqueous test solutions prepared from 10′000 ppm DMSO stock solutions. After drying, the leaf discs were infested with an aphid population of mixed ages. The samples were assessed for mortality 6 days after infestation.

[7] = system: Myzus persicae (Green Peach Aphid); experiment: Activity against Myzus persicae, sucrose solution under Parafilm; settings: 120 h, test rate of 12 ppm, mixed with sucrose solution, 5 days after infestation
Description: Example B7: Activity Against Myzus persicae (Green Peach Aphid)
Test compounds from 10′000 ppm DMSO stock solutions were applied by pipette into 24-well microtiter plates and mixed with sucrose solution. The plates were closed with a stretched Parafilm. A plastic stencil with 24 holes was placed onto the plate and infested pea seedlings were placed directly on the Parafilm. The infested plate was closed with a gel blotting paper and another plastic stencil and then turned upside down. The samples were assessed for mortality 5 days after infestation. […] A30 and A32.

[8] = system: Spodoptera littoralis (Egyptian Cotton Leaf Worm); experiment: Activity against Spodoptera littoralis, sprayed cotton leaf discs; settings: foliar, 72 h, application rate of 200 ppm, L1 larvae on cotton leaf discs, 3 days after infestation, read-out: control (at least one of mortality, anti-feedant effect, growth inhibition)
Procedure: Example B9: Activity Against Spodoptera littoralis (Egyptian Cotton Leaf Worm)
Cotton leaf discs were placed on agar in 24-well microtiter plates and sprayed with aqueous test solutions prepared from 10′000 ppm DMSO stock solutions. After drying the leaf discs were infested with five L1 larvae. The samples were assessed for mortality, anti-feedant effect, and growth inhibition in comparison to untreated samples 3 days after infestation. Control of Spodoptera littoralis by a test sample is when at least one of mortality, anti-feedant effect, and growth inhibition is higher than the untreated sample.

[9] = system: Euschistus heros (Neotropical Brown Stink Bug); experiment: Activity against Euschistus heros, sprayed soybean leaf; settings: 120 h, application rate of 200 ppm, N-2 nymphs on soybean leaf, 5 days after infestation
Procedure: Example B3: Activity Against Euschistus heros (Neotropical Brown Stink Bug)
Soybean leaf on agar in 24-well microtiter plates were sprayed with aqueous test solutions prepared from 10′000 ppm DMSO stock solutions. After drying the leaf were infested with N-2 nymphs. The samples were assessed for mortality 5 days after infestation.

[10] = system: Myzus persicae (Green Peach Aphid); experiment: Activity against Myzus persicae, roots of infested pea seedlings in test solution; settings: 144 h, test rate of 24 ppm, 6 days
Procedure: Example B6: Activity Against Myzus persicae (Green Peach Aphid)
Roots of pea seedlings infested with an aphid population of mixed ages were placed directly in the aqueous test solutions prepared from 10′000 DMSO stock solutions. The samples were assessed for mortality 6 days after placing seedlings in test solutions.

[11] = system: Frankliniella occidentalis (Western Flower Thrips); experiment: Activity against Frankliniella occidentalis, sprayed sunflower leaf discs; settings: foliar, 168 h, application rate of 200 ppm, population of mixed ages on sunflower leaf discs, 7 days after infestation
Procedure: Example B4: Activity Against Frankliniella occidentalis (Western Flower Thrips)
Sunflower leaf discs were placed on agar in 24-well microtiter plates and sprayed with aqueous test solutions prepared from […] stock solutions. After drying the leaf discs were infested with a Frankliniella population of mixed ages. The samples were assessed for mortality 7 days after infestation.

[12] = system: Spodoptera littoralis (Egyptian Cotton Leaf Worm); experiment: Activity against Spodoptera littoralis, compound in agar taken up by lettuce; settings: 144 h, test rate of 12.5 ppm, lettuce root uptake, 6 days after infestation, read-out: effect in at least one of the three categories (mortality, anti-feedancy, or growth inhibition)
Description: Example B10: Activity Against Spodoptera littoralis (Egyptian Cotton Leaf Worm)
as §1, with “mortality, anti-feedant effect and growth inhibition in comparison to untreated samples” for “mortality”

[13] = system: Plutella xylostella (Diamond Back Moth); experiment: Activity against Plutella xylostella, treated artificial diet; settings: 120 h, application rate of 200 ppm, L2 larvae on artificial diet, 5 days after infestation, read-out: effect in at least one of the two categories (mortality or growth inhibition)
Procedure: Example B8: Activity Against Plutella xylostella (Diamond Back Moth)
24-well microtiter plates with artificial diet were treated with aqueous test solutions prepared from 10′000 ppm DMSO stock solutions by pipetting. After drying, the plates were infested with L2 larvae (10 to 15 per well). The samples were assessed for mortality and growth inhibition in comparison to untreated samples 5 days after infestation.

[14] = system: Tetranychus urticae (Two-Spotted Spider Mite); experiment: Activity against Tetranychus urticae, feeding/contact activity; settings: foliar, 192 h
Procedure: Example B12: Activity Against Tetranychus urticae (Two-Spotted Spider Mite): Feeding/Contact Activity
Bean leaf discs on agar in 24-well microtiter plates were sprayed with aqueous test solutions prepared from 10′000 ppm DMSO stock solutions. After drying the leaf discs were infested with a mite population of mixed ages. The samples were assessed for mortality on mixed population (mobile stages) 8 days after infestation.

CCS(=O)(=O)c1cc(C(F)(F)F)cnc1-c1nc2cc(C(F)(F)F)n(C)c(=O)c2n1C [Compound A1, 2-[3-ethylsulfonyl-5-(trifluoromethyl)-2-pyridyl]-3,5-dimethyl-6-(trifluoromethyl)imidazo[4,5-c]pyridin-4-one]
≥ 80%: mortality at 200 ppm [1] | mortality at 200 ppm [2] | percent effect (mortality or growth inhibition) at 5 ppm [3] | mortality at 12.5 ppm [4] | mortality at 200 ppm [5] | mortality at 200 ppm [6] | mortality at 12 ppm [7] | percent control (mortality, anti-feedant effect or growth inhibition) at 200 ppm [8] | mortality at 200 ppm [9] | mortality at 24 ppm [10] | mortality at 200 ppm [11] | percent control (mortality, anti-feedancy or growth inhibition) at 12.5 ppm [12] | percent effect (mortality or growth inhibition) at 200 ppm [13]

CCSc1cc(Br)cnc1-c1nc2cc(C(F)(F)F)n(C)c(=O)c2n1C [Compound A20, 2-(5-bromo-3-ethylsulfanyl-2-pyridyl)-3,5-dimethyl-6-(trifluoromethyl)imidazo[4,5-c]pyridin-4-one]
≥ 80%: mortality at 200 ppm [14] | mortality at 200 ppm [6] | mortality at 200 ppm [9]

CCS(=O)(=O)c1cc(C(F)(F)C(F)(F)F)cnc1-c1nc2cc(C(F)(F)F)n(C)c(=O)c2n1C [Compound A46, 2-[3-ethylsulfonyl-5-(1,1,2,2,2-pentafluoroethyl)-2-pyridyl]-3,5-dimethyl-6-(trifluoromethyl)imidazo[4,5-c]pyridin-4-one]
≥ 80%: mortality at 200 ppm [1] | percent effect (mortality or growth inhibition) at 5 ppm [3] | mortality at 12.5 ppm [4] | mortality at 200 ppm [5] | mortality at 200 ppm [6] | percent control (mortality, anti-feedant effect or growth inhibition) at 200 ppm [8] | mortality at 200 ppm [9] | mortality at 200 ppm [11] | percent control (mortality, anti-feedancy or growth inhibition) at 12.5 ppm [12] | percent effect (mortality or growth inhibition) at 200 ppm [13]
